Measured values reported in patent publication US20240287138A1, “CYCLIC PEPTIDES FOR INHIBITING TNF RECEPTOR 1 ACTIVITY” (Merck Sharp & Dohme LLC, priority 2023, published 2024).
Like-named read-outs stand apart in the source and are kept apart here. Numbered stars: 1 amine (or outer) side, 2 acyl side, 3 side chain; on linkers, the order of the positions; unused ones are H or OH. Bridge positions count the residues as written; N and C are the ends. Square brackets hold non-standard residues; d marks the D form. Peptide text beside a SMILES is read from it. Trp(βS-Me,7-OMe) = COc1cccc2c([C@H](C)[C@H](N)C(=O)O)c[nH]c12; Ala(indazol-1-yl) = N[C@@H](Cn1ncc2ccccc21)C(=O)O; X12 = C[C@@H](c1ccc(O)cc1)[C@H](N[*:1])C(=O)[*:2]; Trp(7-Cl) = N[C@@H](Cc1c[nH]c2c(Cl)cccc12)C(=O)O; X11 = O=C(O)C[C@@H]1C[C@H](C(=O)[*:2])N([*:1])C1; Phe(4-CONH2) = NC(=O)c1ccc(C[C@H](N)C(=O)O)cc1; Phe(4-COOH) = N[C@@H](Cc1ccc(C(=O)O)cc1)C(=O)O; Trp(7-aza) = N[C@@H](Cc1c[nH]c2ncccc12)C(=O)O; Pip(5R-OH) = O=C(O)[C@@H]1CC[C@@H](O)CN1; X1 = O=C([C@@H]1CC[C@H](N[*:1])C1)[*:2]; Pip(4-aza) = O=C(O)[C@@H]1CNCCN1; hPhe = N[C@@H](CCc1ccccc1)C(=O)O; 4Pal = N[C@@H](Cc1ccncc1)C(=O)O; NMeE = CN[C@@H](CCC(=O)O)C(=O)O; αMeS = C[C@](N)(CO)C(=O)O; NMeA = CN[C@@H](C)C(=O)O; Nle = CCCC[C@H](N)C(=O)O; Sar = CNCC(=O)O

How the values were obtained:
human TNFR2 ECD protein = molecular target: T1, human TNFR2 ECD protein (Homo sapiens, UniProt P20333); assay: SPR off-target binding (selectivity) to human TNFR2 ECD
T1 construct: HRV 3C protease cleavage site (C); 6His (C, cleaved yes); made in house; host or cells: Sf21 insect cells (baculovirus), secreted
T1 sequence (P20333 23-257): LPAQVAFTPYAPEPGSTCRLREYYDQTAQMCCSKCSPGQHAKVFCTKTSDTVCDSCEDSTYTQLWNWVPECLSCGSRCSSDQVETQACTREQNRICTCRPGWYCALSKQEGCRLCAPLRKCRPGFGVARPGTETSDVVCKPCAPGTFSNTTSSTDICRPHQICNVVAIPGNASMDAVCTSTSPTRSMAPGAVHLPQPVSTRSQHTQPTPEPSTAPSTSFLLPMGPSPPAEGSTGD
Method: (§1) B. Procedure for Binding Affinity and Selectivity measured by SPR
(§2) Affinity and selectivity for hTNFR1 and TNFR2 was determined using SPR. Human TNFR1 or TNFR2 genes (extracellular domain only) were synthesized with a C-terminal Avi-tag, HRV 3C protease cleavage site followed by a 6His-tag for affinity purification. The final gene product was cloned into pBAC™-1 vector (Millipore Sigma) for expression testing in insect cells. Constructs were transfected into Sf21 cells for baculovirus generation followed by protein expression analysis in Sf21 and Tni cell lines. Large scale expression in Sf21 cells was performed using baculovirus infected insect cells (BIICs) infected at a MOI=2.0 grown for 72 h. Target proteins secreted into the media were harvested via centrifugation and concentrated using diafiltration. TNFR was purified by immobilized metal ion affinity chromatography (IMAC) using a Ni-Sepharose HisTrap™ column (Cytiva™). Isolated TNFR had His tag removed using HRV 3C protease followed by additional purification using Ni-NTA chromatography. Biotinylation was performed on Ni-NTA flow-through fractions concentrated to 45 μM and treated with BirA ligase (1:100, μg/μg ratio) in 50 mM Tris pH 7.5, 150 mM NaCl, 50 μM biotin, 10 mM magnesium acetate, 10 mM ATP at 4° C. for 20 h. Final purification of biotin-TNFR and buffer exchange into 20 mM HEPES pH 7.5, 150 mM NaCl was performed using a HiLoad® Superdex® 200 26/60 column (Cytiva™). Highly purified protein was aliquoted and stored at −80° C.
(§3) The SPR assay uses a Cytiva™ 8K or 8K+ biosensor instrument to measure the kinetics of peptide analytes binding to captured human TNFR1 extracellular domain (ECD) protein; peptide analytes are also evaluated for any off-target binding to human TNFR2 ECD protein in parallel. Recombinant human TNFR1 ECD and human TNFR2 ECD proteins, biotinylated via engineered C-terminal avi-tags, are immobilized to a regenerable streptavidin biosensor chip surface (Cytiva™ Biotin CAPture kit, Series S; cat. #28920234). Peptide analytes binding to immobilized human TNFR1 ECD protein and their subsequent dissociation are conducted in a buffer of 10 mM HEPES pH 7.4, 150 mM NaCl, 3 mM EDTA, 0.05% P20,2% DMSO under laminar flow conditions and measured in response units (RU), which are directly proportional to the accumulated mass on the surface of the biosensor chip; the biosensor chip surface is regenerated via Cytiva™ proprietary methods between the evaluation of each peptide analyte. […] The SPR assay determines the association and dissociation rate constants, kon and koff, for each peptide analyte and, from these values, calculates the binding affinity, […] reported in Table 2.

[1] = molecular target: T2, TNFα-induced NF-κB signal transduction pathway (TNFR1 signaling) in THP-1 cells (Homo sapiens, UniProt P19438); assay: THP-1 Lucia NF-κB reporter cell assay, inhibition of TNFα-induced NF-κB signaling; type: cell-based; conditions: THP-1 NF-κB Lucia reporter cells, 10 ng/mL TNFα, 16-18 h, secreted luciferase; read-out: THP-1 IC50
T2 sequence (P19438 30-455): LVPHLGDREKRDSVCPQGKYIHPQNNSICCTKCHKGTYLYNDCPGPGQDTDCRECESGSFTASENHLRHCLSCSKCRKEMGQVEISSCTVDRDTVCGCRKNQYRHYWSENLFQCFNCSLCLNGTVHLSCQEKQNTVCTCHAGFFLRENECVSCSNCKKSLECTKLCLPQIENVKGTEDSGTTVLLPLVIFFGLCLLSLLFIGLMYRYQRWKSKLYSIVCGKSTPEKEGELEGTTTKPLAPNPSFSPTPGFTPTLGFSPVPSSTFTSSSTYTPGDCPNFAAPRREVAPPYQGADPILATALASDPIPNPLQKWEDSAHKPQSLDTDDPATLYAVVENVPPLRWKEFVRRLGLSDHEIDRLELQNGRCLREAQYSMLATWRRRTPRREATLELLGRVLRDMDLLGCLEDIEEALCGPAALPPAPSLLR
How it was run: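 Read-out: secreted Lucia luciferase luminescence (QUANTI-Luc) from supernatant after 16-18 h, 37 °C, 10 ng/mL rhTNFα. Peptide pretreatment 1 h at 37 °C; 20,000 cells/well, selection antibiotics omitted. IC50 via 4-parameter logistic model against min/max controls.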

[2] = molecular target: T3, human TNFR1 extracellular domain (ECD) protein (Homo sapiens, UniProt P19438); assay: SPR binding affinity to captured human TNFR1 ECD
T3 construct: HRV 3C protease cleavage site (C); 6His (C, cleaved yes); made in house; host or cells: Sf21 insect cells (baculovirus), secreted
T3 sequence (P19438 30-211): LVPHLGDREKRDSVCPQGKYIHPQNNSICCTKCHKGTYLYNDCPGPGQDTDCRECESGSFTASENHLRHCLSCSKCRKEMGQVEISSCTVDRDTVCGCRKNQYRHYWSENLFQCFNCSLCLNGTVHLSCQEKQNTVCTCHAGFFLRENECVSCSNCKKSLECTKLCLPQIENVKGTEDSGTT
Method: as §1, §2, §3

[3] = biotinylated human TNFR2 ECD on streptavidin chip, read-out: SPR hTNFR2 KD
[4] = biotinylated human TNFR1 ECD on streptavidin chip, from kon and koff, read-out: SPR hTNFR1 KD

Compound: CCCC[C@@H]1NC(=O)[C@@H]2CC[C@@H](C2)NC(=O)[C@H]([C@@H](C)c2c[nH]c3c(OC)cccc23)NC(=O)CN(C)C(=O)[C@H](Cc2ccc(O)cc2)NC(=O)[C@H](Cc2ccc(C(=O)O)cc2)NC(=O)[C@](C)(CO)NC(=O)[C@H](Cc2c[nH]c3c(Cl)cccc23)NC(=O)[C@H](Cc2ccncc2)NC(=O)[C@H](CC(N)=O)NC(=O)[C@H](CCC(=O)O)N(C)C(=O)[C@H](Cc2c[nH]c3ccccc23)NC(=O)[C@@H]2CNCCN2C(=O)[C@H](Cc2ccncc2)NC1=O [SEQ ID NO. 5] (cyclo([4Pal][Trp(7-Cl)][αMeS][Phe(4-COOH)]Y[Sar][Trp(βS-Me,7-OMe)][X1][Nle][4Pal][Pip(4-aza)]W[NMeE]N))
- Kd (human TNFR2 ECD protein; [3]): > 1000 nM
- IC50 [1]: 1.2 nM
- Kd [2, 4]: 0.1 nM

Compound: C[C@H]1C(=O)N[C@@H](CC(N)=O)C(=O)N[C@@H](Cc2ccncc2)C(=O)N[C@@H](Cc2c[nH]c3ccccc23)C(=O)N[C@@](C)(CO)C(=O)N[C@@H](Cc2ccc(C(=O)O)cc2)C(=O)N[C@@H](Cc2ccc(O)cc2)C(=O)N(C)CC(=O)N[C@@H](Cc2c[nH]c3ccccc23)C(=O)N[C@H](C(N)=O)CSCC(=O)N[C@@H](CCc2ccccc2)C(=O)N[C@@H](Cc2ccc(O)cc2)C(=O)N[C@@H](CO)C(=O)N[C@@H](Cn2ncc3ccccc32)C(=O)N1C [SEQ ID NO. 265] ({CH2CO}-[hPhe]YS[Ala(indazol-1-yl)][NMeA]N[4Pal]W[αMeS][Phe(4-COOH)]Y[Sar]WC-NH2; thioether N-14)
- Kd (human TNFR2 ECD protein; [3]): > 1000 nM
- IC50 [1]: 4.9 nM
- Kd [2, 4]: 1 nM

Compound: CCCC[C@@H]1NC(=O)[C@@H]2CC[C@@H](C2)NC(=O)[C@H]([C@@H](C)c2c[nH]c3c(OC)cccc23)NC(=O)CN(C)C(=O)[C@H](Cc2ccc(C(=O)O)cc2)NC(=O)[C@H](Cc2ccc(C(N)=O)cc2)NC(=O)[C@](C)(CO)NC(=O)[C@H](Cc2c[nH]c3c(Cl)cccc23)NC(=O)[C@H](Cc2ccc(C(=O)O)cc2)NC(=O)[C@H](CC(N)=O)NC(=O)[C@H]2C[C@@H](CC(=O)O)CN2C(=O)[C@H](Cc2c[nH]c3ccccc23)NC(=O)[C@@H]2CC[C@@H](O)CN2C(=O)[C@H](Cc2ccncc2)NC1=O [SEQ ID NO. 132] (cyclo([4Pal][Pip(5R-OH)]W[X11]N[Phe(4-COOH)][Trp(7-Cl)][αMeS][Phe(4-CONH2)][Phe(4-COOH)][Sar][Trp(βS-Me,7-OMe)][X1][Nle]))
- Kd (human TNFR2 ECD protein): > 1000 nM
- IC50 [1]: 0.7 nM
- Kd [2]: 0.08 nM

Compound: CCCC[C@@H]1NC(=O)CSC[C@@H](C(N)=O)NC(=O)[C@H]([C@@H](C)c2c[nH]c3c(OC)cccc23)NC(=O)CN(C)C(=O)[C@H](Cc2ccc(O)cc2)NC(=O)[C@H](Cc2ccc(C(=O)O)cc2)NC(=O)[C@](C)(CO)NC(=O)[C@H](Cc2c[nH]c3c(Cl)cccc23)NC(=O)[C@H](Cc2ccncc2)NC(=O)[C@H](CC(N)=O)NC(=O)[C@H](CCC(=O)O)N(C)C(=O)[C@H](Cc2c[nH]c3ncccc23)NC(=O)[C@H](CO)NC(=O)[C@H]([C@@H](C)c2ccc(O)cc2)NC1=O [SEQ ID NO. 46] ({CH2CO}-[Nle][X12]S[Trp(7-aza)][NMeE]N[4Pal][Trp(7-Cl)][αMeS][Phe(4-COOH)]Y[Sar][Trp(βS-Me,7-OMe)]C-NH2; thioether N-14)
- Kd (human TNFR2 ECD protein): > 1000 nM
- IC50 [1]: 3 nM
- Kd [2]: 0.07 nM
